# Assay results reported in US20260364080A1, “PYRAZOLO-PYRIMIDINONE COMPOUNDS FOR USE IN METHODS OF INHIBITING WEE1 A KINASE” (Acrivon Therapeutics, Inc., priority 2023, published 2026).
# pEC50, pIC50: −log10 of the molar value.
# Tests used:
# [1] = biological target: T1, Myt1 kinase (recombinant PMYT-1) (Homo sapiens, UniProt Q99640); test: Myt1 kinase binding assay (LanthaScreen Eu Kinase Binding Assay); details: 3 nM tracer 178, 2.5 nM PMYT-1, 1 nM Eu-labeled antibody; read-out: Myt1 kinase Binding IC50
# T1 construct: full length PMYT-1 was expressed by baculovirus in insect cells; purchased Invitrogen A30984; host or cells: insect cells (baculovirus)
# T1 sequence (Q99640 1-499): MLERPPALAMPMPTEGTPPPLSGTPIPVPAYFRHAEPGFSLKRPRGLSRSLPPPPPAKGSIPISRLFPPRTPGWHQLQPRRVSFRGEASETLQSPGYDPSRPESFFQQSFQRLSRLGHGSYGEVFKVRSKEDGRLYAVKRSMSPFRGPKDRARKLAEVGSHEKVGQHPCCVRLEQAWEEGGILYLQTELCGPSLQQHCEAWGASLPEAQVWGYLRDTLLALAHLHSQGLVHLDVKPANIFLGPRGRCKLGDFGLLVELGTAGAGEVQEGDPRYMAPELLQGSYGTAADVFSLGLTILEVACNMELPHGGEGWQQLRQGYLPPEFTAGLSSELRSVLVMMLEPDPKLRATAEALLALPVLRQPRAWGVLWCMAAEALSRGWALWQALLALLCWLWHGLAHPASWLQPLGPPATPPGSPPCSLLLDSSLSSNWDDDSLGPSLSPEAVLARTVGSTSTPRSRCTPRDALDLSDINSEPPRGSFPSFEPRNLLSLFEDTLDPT
# How it was run: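 Compound binding to Myt1 kinase was assessed using the LanthaScreen Eu Kinase Binding Assay. This europium-based binding format was applied to quantify how strongly each compound bound to the Myt1 enzyme, and the binding affinity was reported for each compound as an IC50 value.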
# [2] = biological target: T2, Wee1A kinase (CDK1 Tyr15 phosphorylation in ACHN renal cell carcinoma cells) (Homo sapiens, UniProt P30291); test: High-content imaging of pCdk1 Y15, Wee1A kinase target engagement in ACHN cells; type: cell-based; details: 4 h treatment, nuclear positivity for pCdk1 Y15 vs DMSO control, read-out: CDK1 Tyr15 Phosphorylation EC50
# T2 construct: pCDK1 Tyr15 immunofluorescence read-out
# T2 sequence (P30291 whole entry): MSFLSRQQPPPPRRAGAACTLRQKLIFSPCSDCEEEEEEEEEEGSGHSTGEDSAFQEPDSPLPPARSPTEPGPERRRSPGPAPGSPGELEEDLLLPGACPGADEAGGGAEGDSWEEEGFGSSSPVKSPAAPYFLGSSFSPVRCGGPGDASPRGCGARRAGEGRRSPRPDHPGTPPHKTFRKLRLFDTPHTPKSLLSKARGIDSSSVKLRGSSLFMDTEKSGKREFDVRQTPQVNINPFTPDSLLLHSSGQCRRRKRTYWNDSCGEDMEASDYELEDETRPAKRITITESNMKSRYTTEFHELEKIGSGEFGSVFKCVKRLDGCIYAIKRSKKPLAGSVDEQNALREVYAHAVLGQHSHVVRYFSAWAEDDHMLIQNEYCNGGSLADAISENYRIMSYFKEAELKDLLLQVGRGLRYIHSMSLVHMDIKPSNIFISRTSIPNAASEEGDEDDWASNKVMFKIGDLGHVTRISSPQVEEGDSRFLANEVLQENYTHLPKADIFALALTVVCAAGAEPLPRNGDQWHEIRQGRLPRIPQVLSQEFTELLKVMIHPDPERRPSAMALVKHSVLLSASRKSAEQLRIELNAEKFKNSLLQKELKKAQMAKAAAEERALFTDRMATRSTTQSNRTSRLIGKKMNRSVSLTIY
# How it was run: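 EC50 values come from the per-well fraction of cells with nuclear pCdk1 Y15 staining, normalised to DMSO control, by automated immunofluorescence imaging. Cells were ACHN renal carcinoma, treated 4 h with compound at 7–5,000 nM or 0.3–200 nM.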
# [3] = biological target: T3, recombinant human Wee1A kinase (Homo sapiens, UniProt P30291); test: Wee1A kinase binding assay (LanthaScreen Eu time-resolved FRET); details: 30 nM tracer 178, 5 nM Wee1A kinase, 2 nM Eu-labeled antibody; 60 minutes at room temperature; read-out: Wee1A kinase Binding IC50
# T3 construct: full length Wee1 kinase was expressed by baculovirus in insect cells; purchased Invitrogen PV3817; host or cells: insect cells (baculovirus)
# T3 sequence (P30291 whole entry): as above
# How it was run: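 Full-length, baculovirus-expressed GST-tagged Wee1A (5 nM) was mixed with 2 nM Eu-anti-GST antibody, 30 nM kinase tracer 178 and compound (1% DMSO). Buffer was 50 mM HEPES pH 7.5, 10 mM MgCl2, 1 mM EGTA, 0.01% Brij-35, incubated 60 min at room temperature. TR-FRET 665/615 nm emission ratios from duplicates were curve-fitted.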
# [4] = biological target: T4, Myt1 kinase (CDK1 Thr14 phosphorylation in DAOY medulloblastoma cells) (Homo sapiens, UniProt Q99640); test: AlphaLISA assay, Myt1 kinase target engagement (phospho-CDK1 Thr14) in DAOY cells; type: cell-based; details: 4 h treatment, read-out: CDK1 Thr14 Phosphorylation EC50
# T4 construct: pCDK1 Thr14 AlphaLISA read-out
# T4 sequence (Q99640 1-499): T1 sequence (Q99640 1-499)
# Protocol: Each of an ACHN renal cell carcinoma cell line (ATCC) and a DAOY medulloblastoma cell line, and an A427 lung cancer line were cultured in Minimum Essential Medium Eagle supplemented with 10% fetal calf serum (Sigma), 1% Penicillin-Streptomycin and 10 mM HEPES buffer (HyClone). Cell cultures were kept in a humidified incubator at 37 °C and 5% CO2. Cells were routinely tested for Mycoplasma contamination.
# For target engagement assessment of Myt1 kinase inhibition, quantification of Cdk1 phosphorylated on threonine 14 was detected using the AlphaLISA® SureFire® Ultra™ Human Phospho-CDK1 (Thr14) assay (Perkin Elmer). DAOY or ACHN cells were seeded into tissue culture treated 96-well plates (VWR) to a density of 10,000 or 20,000 cells per well respectively. 24 h post seeding cells were treated for 4 h with compounds at concentrations ranging from 7 to 5000 nM. Cells were washed with PBS and lysed in 50 μl AlphaLISA lysis buffer before freezing at −80 C. Ten ul of the lysate was transferred to 384 well plates and incubated with AlphaLISA donor and acceptor beads according to the manufacturer's instructions. Dose response curves and EC50 values were calculated and visualized using GraphPad Prism version 9. Target engagement for Myt1 kinase can also be measured using the same AlphaLISA assay in OVCAR3 cells, an ovarian cancer cell line. NIH:OVCAR-3 (OVCAR3) cells are cultured in RPMI-1640 medium supplemented with 0.01 mg/ml insulin, 20% FBS, 1% Penicillin-Streptomycin and 10 mM HEPES buffer. 14,000 cells per well are seeded into 96 well tissue culture plates in full medium. Twenty-four hours post seeding, cells are treated with compound for 4 hours at concentrations ranging from 0.017 nM to 1000 nM.
# ACHN cells = test: Cell Titer Glo viability assay, ACHN cells; type: cell-based; details: Homo sapiens, 144 h, absolute EC50
# How it was run: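 Cells grown in MEM with 10% FCS were seeded at 500 (A427), 400 (ACHN) or 250 (DAOY) per well and treated the next day with compound at 17 to 10 000 nM. Viability relative to untreated control was read at 144 h by CellTiter-Glo 2.0.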
pIC50 [1],pEC50 [2],pIC50 [3],pEC50 [4],pEC50 (ACHN cells),Structure (SMILES)
> 7.70,6.30 to 7.00,> 8.00,< 6.00,–,"C=CCn1c(=O)c2cnc(Nc3cnn(C)c3)nc2n1-c1cccc(OC2CC3CCCC(C2)N3C)n1 (stereo not shown) [Compound 194, 2-allyl-1-{6-(9-methyl-9-azabicyclo[3.3.1]non-3-yloxy)-2-pyridyl}-6-(1-methyl-4-pyrazolylamino)-1,2-dihydro-3H-1,2,5,7-tetraazainden-3-one]"
> 7.70,6.30 to 7.00,> 8.00,< 6.00,–,"C=CCn1c(=O)c2cnc(Nc3ccc4sncc4c3)nc2n1-c1cccc(OC2CCNCC2)n1 [Compound 228, 2-allyl-6-(1,2-benzisothiazol-5-ylamino)-1-[6-(4-piperidyloxy)-2-pyridyl]-1,2-dihydro-3H-1,2,5,7-tetraazainden-3-one]"
> 7.70,< 6.00,> 8.00,< 6.00,–,"C=CCn1c(=O)c2cnc(Nc3cccnc3)nc2n1-c1cccc(OC2CCNCC2)n1 [Compound 230, 2-allyl-1-[6-(4-piperidyloxy)-2-pyridyl]-6-(3-pyridylamino)-1,2-dihydro-3H-1,2,5,7-tetraazainden-3-one]"
> 7.70,> 7.00,> 8.00,6.30 to 6.70,–,"C=CCn1c(=O)c2cnc(Nc3ccc4oc(C)nc4c3)nc2n1-c1cccc(OC2CCNCC2)n1 [Compound 232, 2-allyl-6-(2-methyl-1,3-benzoxazol-5-ylamino)-1-[6-(4-piperidyloxy)-2-pyridyl]-1,2-dihydro-3H-1,2,5,7-tetraazainden-3-one]"
> 7.70,–,> 8.00,6.30 to 6.70,≥ 7.00,"C=CCn1c(=O)c2cnc(Nc3ccc4nccnc4c3)nc2n1-c1cccc(OC2CCN(C)CC2)n1 [Compound 241, 2-allyl-1-[6-(1-methyl-4-piperidyloxy)-2-pyridyl]-6-(6-quinoxalinylamino)-1,2-dihydro-3H-1,2,5,7-tetraazainden-3-one]"
> 7.70,–,> 8.00,6.30 to 6.70,≥ 7.00,"C=CCn1c(=O)c2cnc(Nc3ccc(N4CCSCC4)cc3)nc2n1-c1cccc(OC2CCN(C)CC2)n1 [Compound 261, 2-allyl-1-[6-(1-methyl-4-piperidyloxy)-2-pyridyl]-6-[p-(1,4-thiazinan-4-yl)phenylamino]-1,2-dihydro-3H-1,2,5,7-tetraazainden-3-one]"
> 7.70,> 7.00,> 8.00,6.30 to 6.70,–,"C=CCn1c(=O)c2cnc(Nc3ccc4c(cnn4C(C)C)c3)nc2n1-c1cccc(OC2CCNCC2)n1 [Compound 265, 2-allyl-6-(1-isopropyl-1H-indazol-5-ylamino)-1-[6-(4-piperidyloxy)-2-pyridyl]-1,2-dihydro-3H-1,2,5,7-tetraazainden-3-one]"
7.00 to 7.70,6.00 to 6.30,> 8.00,< 6.00,–,"C=CCn1c(=O)c2cnc(Nc3ccc4cnoc4c3)nc2n1-c1cccc(OC2CCN(C)CC2)n1 [Compound 299, 2-allyl-6-(1,2-benzisoxazol-6-ylamino)-1-[6-(1-methyl-4-piperidyloxy)-2-pyridyl]-1,2-dihydro-3H-1,2,5,7-tetraazainden-3-one]"
7.00 to 7.70,> 7.00,> 8.00,–,6.30 to 7.00,"C=CCn1c(=O)c2cnc(Nc3ccc4nc(C)oc4c3)nc2n1-c1cccc(OC2CCNCC2)n1 [Compound 316, 2-allyl-6-(2-methyl-1,3-benzoxazol-6-ylamino)-1-[6-(4-piperidyloxy)-2-pyridyl]-1,2-dihydro-3H-1,2,5,7-tetraazainden-3-one]"
7.00 to 7.70,6.30 to 7.00,> 8.00,–,6.30 to 7.00,"C=CCn1c(=O)c2cnc(Nc3ccc(F)cc3)nc2n1-c1cccc(OC2CCCN(C)CC2)n1 (stereo not shown) [Compound 317, 2-allyl-6-(p-fluorophenylamino)-1-[6-(1-methyl-4-azepanyloxy)-2-pyridyl]-1,2-dihydro-3H-1,2,5,7-tetraazainden-3-one]"
7.00 to 7.70,< 6.00,> 8.00,–,< 6.00,"CCn1c(=O)c2cnc(Nc3ccc4c(c3)ncn4C)nc2n1-c1cccc(OC2CCNCC2)n1 [Compound 318, 2-ethyl-6-((1-methyl-1H-benzo[d]imidazol-5-yl)amino)-1-(6-(piperidin-4-yloxy)pyridin-2-yl)-1,2-dihydro-3H-pyrazolo[3,4-d]pyrimidin-3-one]"
6.30 to 7.00,> 7.00,> 8.00,–,6.30 to 7.00,"C=CCn1c(=O)c2cnc(Nc3ccc4c(cnn4C)c3)nc2n1-c1cccc(O[C@H]2CCCN(C)C2)n1 [Compound 332, 1-{6-[(S)-1-methyl-3-piperidyloxy]-2-pyridyl}-2-allyl-6-(1-methyl-1H-indazol-5-ylamino)-1,2-dihydro-3H-1,2,5,7-tetraazainden-3-one]"
7.00 to 7.70,> 7.00,> 8.00,–,≥ 7.00,"[2H]C([2H])([2H])c1cccc(Nc2ncc3c(=O)n(CC=C)n(-c4cccc(OC5CCNCC5)n4)c3n2)c1 [Compound 334, 2-allyl-6-((3-(methyl-d3)phenyl)amino)-1-(6-(piperidin-4-yloxy)pyridin-2-yl)-1,2-dihydro-3H-pyrazolo[3,4-d]pyrimidin-3-one]"
7.00 to 7.70,> 7.00,> 8.00,–,6.30 to 7.00,"Cn1ccc2cc(Nc3ncc4c(=O)n(C)n(-c5cccc(OC6CCNCC6)n5)c4n3)ccc21 [Compound 336, 2-methyl-6-((1-methyl-1H-indol-5-yl)amino)-1-(6-(piperidin-4-yloxy)pyridin-2-yl)-1,2-dihydro-3H-pyrazolo[3,4-d]pyrimidin-3-one]"
> 7.70,> 7.00,> 8.00,< 6.00,–,"C=CCn1c(=O)c2cnc(Nc3ccc(N4CCS(=O)(=O)CC4)cc3)nc2n1-c1cccc(OC2CCN(C)CC2)n1 [Compound 369, 4-(p-{2-allyl-1-[6-(1-methyl-4-piperidyloxy)-2-pyridyl]-3-oxo-1,2-dihydro-3H-1,2,5,7-tetraazainden-6-ylamino}phenyl)-1λ^6,4-thiazinane-1,1-dione]"
> 7.70,> 7.00,> 8.00,–,≥ 7.00,C=CCn1c(=O)c2cnc(Nc3ccc(OCCCF)cc3)nc2n1-c1cccc(OC2CCNCC2)n1 [Compound 377]
